Measured values as given in patent publication US20220175761A1, “BI-LIGAND DRUG CONJUGATE AND USE THEREOF” (COHERENT BIOPHARMA (SUZHOU), LIMITED, priority 2019, published 2022).
Square brackets hold non-standard residues; d marks the D form. Peptide text beside a SMILES is read from it. * marks the point of attachment. Dolaproine = CO[C@@H]([C@@H]1CCCN1)[C@@H](C)C(=O)O; Dil = CC[C@H](C)[C@H](NC)[C@@H](CC(=O)O)OC; X1 = C[C@@H](N*)[C@@H](O)c1ccccc1; NMeV = CN[C@H](C(=O)O)C(C)C

What was measured:
LU1380 = test: Tumor growth inhibition in HuPrime xenograft lung cancer PDX model; assay type: in vivo, BALB/c-nude mice; conditions: 3 mg/kg, tail vein
Description: (§1) Experimental scheme: The tumor tissue mass were prepared and subcutaneously inoculated into the anterior right flank of BALB/c-nude mice. When the tumor volume expanded to 80-160 mm^3, a randomized grouping was performed, and a model control group and administration groups were set. The mice were administrated from the first day of grouping, wherein the administration dose was adjusted according to the latest weight measurement. The mice were administrated via tail vein injection at an administration volume of 10 μl/g and an administration dosage of 3 mg/kg. After grouping and administration, the effects of tumor growth and treatment on normal behaviors of animals, specifically including the activity of experimental animals, food intake and drinking status, weight gain or loss status, and other abnormal conditions in eyes, hair, etc., were monitored. After grouping and administration, the weight of mice was measured twice a week to calculate the rate of weight change; at the same time, the long diameter and short diameter of the tumor were measured with a vernier caliper, and the tumor volume, relative tumor proliferation rate, tumor volume inhibition rate and other indicators were calculated. The formula of tumor volume is TV=0.5 a×b^2, wherein a is the long diameter of a tumor and b is the short diameter of a tumor.

LU0367 = test: as above; assay type: in vivo, BALB/c-nude mice; conditions: 3 mg/kg, tail vein
Description: as §1

LU1206 = test: as above; assay type: in vivo, BALB/c-nude mice; conditions: 3 mg/kg, tail vein
Description: as §1

[1] = system: KB, MIA paca-2, HCC1954, CALU-3 and DU145 cell lines (CDX tumor models); test: Pharmacodynamic study 1 of CB-20BK in CDX models; assay type: in vivo, BALB/c-nude mice; conditions: tail vein injection
Description: CB-20BK lyophilized powder was weighed, dissolved with PBS and prepared into a sample mother solution, and the mother solution was diluted with a physiological saline for injection to a sample solution with a working concentration for later use.
Main cell lines: KB human oral epidermoid carcinoma cells, MIA paca-2 human pancreatic cancer cells, HCC1954 human breast cancer cells, CALU-3 human lung adenocarcinoma cells and DU145 human prostate cancer cells.
Model construction: The cells were resuscitated, cultured, collected, counted, and subcutaneously injected into the right flank of BALB/c-nude mice. When the tumor grew and expanded to 80-160 mm^3, grouping and administration were performed, or rapidly expanded tumor masses were transferred and injected to mice for scale up.
Grouping: When the tumor grew to about 80-160 mm^3 on average, a grouping was performed, and a model control group and different doses of administration groups were set.
Administration: The mice were administrated via tail vein injection.
The weight of mice and the long diameter (a) and short diameter (b) of tumor mass were measured twice a week. The formula for the calculation of tumor volume (TV) is: TV=½×a×b^2.

FOLR1 = target: T1, FOLR1 (Homo sapiens, UniProt P15328); test: BIAcore T200 binding affinity to FOLR1 (CM5 chip conjugated with FOLR1)
T1 construct: purchased R&D System 5646-FR
T1 sequence (P15328 25-233 limits assumed): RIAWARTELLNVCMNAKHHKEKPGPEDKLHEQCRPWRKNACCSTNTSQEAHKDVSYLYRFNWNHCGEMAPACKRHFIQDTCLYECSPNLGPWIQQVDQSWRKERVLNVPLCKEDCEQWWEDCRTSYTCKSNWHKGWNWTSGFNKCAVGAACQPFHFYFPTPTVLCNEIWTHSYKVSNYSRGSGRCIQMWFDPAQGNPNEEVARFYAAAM
Text: Buffer: HBS-EP+ buffer 10× (GE, Cat #: BR100669), diluted 10 folds with deionized water before use.
In the experiment, CM5 chip was conjugated with ligand FOLR1 (R&D System, Cat #: 5646-FR).

FOLH1 = FOLH1 (Homo sapiens, UniProt Q04609); test: Gator binding affinity to FOLH1 (SA probe with Biotin-CB-20BK, analyte FOLH1); set-up: purchased Sino Biologicals 15877-H07H
Chain of FOLH1 (Q04609 44-750 limits assumed): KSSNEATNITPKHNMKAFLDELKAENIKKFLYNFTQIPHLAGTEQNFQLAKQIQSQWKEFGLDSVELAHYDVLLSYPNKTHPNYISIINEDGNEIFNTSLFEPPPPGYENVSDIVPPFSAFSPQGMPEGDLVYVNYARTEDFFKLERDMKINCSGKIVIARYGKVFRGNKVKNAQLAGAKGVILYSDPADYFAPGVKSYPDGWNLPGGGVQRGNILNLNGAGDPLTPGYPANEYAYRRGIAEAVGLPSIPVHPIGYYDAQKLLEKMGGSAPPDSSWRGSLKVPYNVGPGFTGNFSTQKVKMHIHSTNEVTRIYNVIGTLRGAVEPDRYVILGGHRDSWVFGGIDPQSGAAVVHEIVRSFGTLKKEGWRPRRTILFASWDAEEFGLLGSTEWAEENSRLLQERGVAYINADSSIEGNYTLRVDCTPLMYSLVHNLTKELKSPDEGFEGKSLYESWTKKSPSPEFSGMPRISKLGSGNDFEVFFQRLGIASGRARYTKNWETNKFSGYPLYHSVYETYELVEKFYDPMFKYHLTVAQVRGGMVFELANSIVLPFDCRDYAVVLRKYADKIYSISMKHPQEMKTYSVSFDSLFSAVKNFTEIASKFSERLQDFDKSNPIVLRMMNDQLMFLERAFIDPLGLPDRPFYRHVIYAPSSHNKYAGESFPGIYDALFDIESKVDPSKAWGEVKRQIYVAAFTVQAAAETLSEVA
Description: SA probe (Probe Life, Cat #: 1906018)
Buffer: Q buffer (Probe Life), 10 mM, pH=7.4
(2) The experiment was carried out according to Gator™ (Probe Life) instruction manual to determine the binding affinity of Biotin-CB-20BK to FOLH1. In the experiment, SA probe binds to ligand Biotin-CB-20BK, and the analyte is FOLH1 (Sino Biologicals, Cat #: 15877-H07H).

[2] = system: SK-BR-3 (human breast cancer cells); test: Inhibition of cell line proliferation, CCK8; assay type: cell-based; conditions: SK-BR-3, 68-72 hours, CCK8
Description: Experimental operations: LNCaP, SK-BR-3, NCI-H226, CFPAC-1 and PANC-1 cells were prepared in advance and counted; with a culture medium (IMDM+10% FBS+1× L-Glutamine+1×P/S), the cells LNCaP, SK-BR-3 and CFPAC-1 were diluted to 4×10^4 cells/ml, NCI-H226 was diluted to 2.0×10^4 cells/ml and PANC-1 was diluted to 3.0×10^4 cells/ml; the diluted cell solution was plated in 96-well plates at 100 μl/well; and negative control and blank control wells were set on each plate. After adherent cell culture overnight, the diluted samples to be tested were added at 50 μl/well. The plates were placed in an incubator at 37° C., 5% CO2 and cultured for 68-72 hours. To each well, 15 μl (10% of the liquid volume in a well) of a color developing solution from CCK8 was added; and the plates were incubated at 37° C. for 45-70 minutes and each plate was read at 450 nm on a microplate reader. The data was edited using SoftMax Pro and a 4-P fitting curve was plotted.
Experimental Operations: LNCaP, SK-BR-3, MDA-MB-468 and CFPAC-1 cells were prepared in advance and counted; with a culture medium (IMDM+10% FBS+1× L-Glutamine+1×P/S), the cells LNCaP, SK-BR-3, MDA-MB-468 and CFPAC-1 were diluted to 4×10^4 cells/ml; the diluted cell solution was plated in 96-well plates at 100 µl/well; and negative control and blank control wells were set on each plate. After adherent cell culture overnight, the diluted samples to be tested were added at 50 μl/well. The plates were placed in an incubator at 37° C., 5% CO2 and cultured for 68-72 hours. To each well, 15 μl (10% of the liquid volume in a well) of a color developing solution from CCK8 was added; and the plates were incubated at 37° C. for 45-70 minutes and each plate was read at 450 nm on a microplate reader. The data was edited using SoftMax Pro and a 4-P fitting curve was plotted.

[3] = Body weight and clinical observation in the LU2505 study; assay type: in vivo, BALB/c nude mice; conditions: 0.375 mg/kg on day 1, 8, 15, D22
Text: The active substance of test sample CBP-1018 is CB-20BK, which is obtained by mixing CB-20BK with auxiliary materials and then lyophilizing same.

[4] = system: lung cancer PDX model LU1206; test: Effectiveness in lung cancer LU1206 model (PDX model); assay type: in vivo, BALB/c nude mice
Description: (§2) BALB/c nude mice bore tumors subcutaneously and, when the tumor volume reached about 150 mm^3, were grouped into: low-dose, medium-dose and high-dose test sample groups, a small molecule MMAE control group, a targeting polypeptide 20BK-SM09 control group, and a blank control group (a total of 6 groups, and 8 mice per group); the mice were administered on day 1, day 8 and day 15 after the grouping; and the observation was continued for 14 days after the last administration.

[5] = Body weight and clinical observation in the LU1206 study; conditions: 0.375 mg/kg on day 1, 8, 15
Description: as §2

[6] = FOLR1 on CM5 chip, N/D = no specific binding was detected
[7] = 0.375 mg/kg on day 1, 8, 15, euthanized on day 29

Compound | TGI (LU1380) | TGI (LU0367) | TGI (LU1206) | inhibitory effect in CDX tumor models (tumor volume) [1] | specific binding to FOLR1 (in words) (FOLR1; BIAcore T200) | Kd (FOLR1; [6]) | kd (FOLR1; [6]) | kon (FOLR1; FOLR1 on CM5 chip, N/D = no specific binding was detected, read-out: ka) | binding to FOLH1 (in words) (FOLH1) | IC50 [2] | Weight [3] | tumor growth inhibition effect (in words) ([4]; 0.375 mg/kg) | Tumor volume ([4]; 0.375 mg/kg on day 1, 8, 15) | Tumor volume Tumor growth inhibition rate ([4]; 0.375 mg/kg on day 1, 8, 15) | Tumor weight [4, 7] | Tumor weight Inhibition ratio [4, 7] | Weight [5]
CC[C@H](C)[C@@H]([C@@H](CC(=O)N1CCC[C@H]1[C@H](OC)[C@@H](C)C(=O)N[C@H](C)[C@@H](O)c1ccccc1)OC)N(C)C(=O)[C@@H](NC(=O)[C@H](C(C)C)N(C)C(=O)OCc1ccc(NC(=O)C(CCCNC(N)=O)NC(=O)[C@@H](NC(=O)CCCCCN2C(=O)CC(SC[C@H](NC(=O)[C@H](CCCCN)NC(=O)[C@H](CC(=O)O)NC(=O)[C@H](CC(=O)O)NC(=O)Cc3ccc(CNC(=O)NCCCC[C@H](NC(=O)N[C@@H](CCC(=O)O)C(=O)O)C(=O)O)cc3)C(=O)N[C@@H](CCCCNC(=O)CC[C@H](NC(=O)c3ccc(NCc4cnc5[nH]c(N)nc(=O)c5n4)cc3)C(=O)O)C(N)=O)C2=O)C(C)C)cc1)C(C)C (some centres unmarked) [CB-20BK] | 30.02% | 71.34% | 90.89% | good inhibitory effect | specifically binds to FOLR1 with a good affinity | 0.127 nM | 0.000131 s⁻¹ | 1.03e+06 M⁻¹ s⁻¹ | binds to FOLH1 with a good affinity | – | – | – | – | – | – | – | –
CC[C@H](C)[C@@H]([C@@H](CC(=O)N1CCC[C@H]1[C@H](OC)[C@@H](C)C(=O)N[C@H](C)[C@@H](O)c1ccccc1)OC)N(C)C(=O)[C@@H](NC(=O)[C@@H](NC)C(C)C)C(C)C [MMAE, monomethyl auristatin E] (H-[NMeV]V[Dil][Dolaproine]-X1) | – | – | – | – | – | – | – | – | – | 2 nM | 23.5 g | clear tumor growth inhibition effect | 778.32 mm^3 | 36.03% | 437.73 mg | 54.53% | 23.6 g
